For experiment [1], the system named is IL-13 induced STAT6 promotor luciferase reporter in U937 monocytes (U937-STAT6-Luc). Description: Cellular interleukin (IL-13) induced JAK-STAT6-luciferase assay (pSTAT6). The class given is cell-based. The settings on record: Homo sapiens, U-937; IL-13 induced STAT6-luciferase, U937-STAT6-Luc cells. As to the method: Cells were harvested by centrifugation at 250 g for 5 min and resuspended in Assay buffer (20 mM HEPES, 1×HBSS and 0.1% BSA) to 1000 cells pr μl. For stimulation of cells was used interleukin (IL-13) also dissolved in Assay buffer to […]. […] Test and control compounds were applied to assay plates (low vol white 384-well plates) in serial dilutions from 10 mM to 0.5 nM at 5 nl pr well in DMSO.
To each well was added 4 μl cells and 4 μl interleukin (IL-13) and the plates were sealed and incubated at 37° C. for 4½ h and then at room temperature for 30 min. The assay was developed by addition of 4 μl pr well of SteadyGlo (Promega) and after […] the plates were read at an Envision plate reader with luminescence filter.

Experiment [2] addresses recombinant JAK1 (amino acids 866-1154) (Homo sapiens (Human), UniProt P23458). As to the kind of experiment: Enzyme inhibition studies, JAK1 (5 mM ATP, Caliper). The class given is biochemical. Here is the method: (§1) JAK enzyme was expressed as N-terminal GST fusion in insect cells and purified by glutathione-affinity and size-exclusion chromatographies. Enzymes were assayed at their approximated high end of physiological ATP concentration of 5 mM, in the presence of inhibitor dosed at 30, 3, 0.3, 0.03, 0.003 and 0 μM final test concentrations.
(§2) Phosphorylated and unphosphotylated peptides were separated and quantified by a Caliper LC3000 system (Caliper Life Sciences, MA) for calculating percent inhibition.

The target of experiment [3] is recombinant JAK3 (amino acids 781-1124) (Homo sapiens (Human), UniProt P52333). As to the kind of experiment: Enzyme inhibition studies, JAK3 (5 mM ATP, Caliper). The class given is biochemical. As to the method:
as §1, §2

Experiment [4] concerns the target recombinant JAK2 (amino acids 831-1132) (Homo sapiens (Human), UniProt O60674). As to the kind of experiment: Enzyme inhibition studies, JAK2 (5 mM ATP, Caliper). The class given is biochemical. As to the method: as §1, §2

Some results are limits rather than exact numbers.

recombinant JAK2 (amino acids 831-1132), sequence (O60674 831-1132): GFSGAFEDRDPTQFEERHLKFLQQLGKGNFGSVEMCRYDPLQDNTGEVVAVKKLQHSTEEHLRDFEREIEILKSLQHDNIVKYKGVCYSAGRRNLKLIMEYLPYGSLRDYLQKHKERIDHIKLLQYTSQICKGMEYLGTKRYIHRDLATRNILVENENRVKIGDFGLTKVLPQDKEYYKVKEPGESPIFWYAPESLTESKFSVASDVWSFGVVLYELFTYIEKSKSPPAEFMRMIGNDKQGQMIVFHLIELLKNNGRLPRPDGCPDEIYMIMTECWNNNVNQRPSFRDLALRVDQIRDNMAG
recombinant JAK3 (amino acids 781-1124), sequence (P52333 781-1124): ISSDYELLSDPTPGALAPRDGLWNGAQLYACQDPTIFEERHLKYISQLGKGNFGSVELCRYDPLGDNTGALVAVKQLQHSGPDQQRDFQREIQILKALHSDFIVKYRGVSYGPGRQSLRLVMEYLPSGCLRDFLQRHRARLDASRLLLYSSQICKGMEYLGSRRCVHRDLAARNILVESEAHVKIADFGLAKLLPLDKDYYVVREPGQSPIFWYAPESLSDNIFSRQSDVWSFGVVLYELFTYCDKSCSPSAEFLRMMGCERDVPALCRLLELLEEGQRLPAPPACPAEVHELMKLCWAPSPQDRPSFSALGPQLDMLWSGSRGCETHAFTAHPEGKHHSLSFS
recombinant JAK1 (amino acids 866-1154), sequence (P23458 866-1154): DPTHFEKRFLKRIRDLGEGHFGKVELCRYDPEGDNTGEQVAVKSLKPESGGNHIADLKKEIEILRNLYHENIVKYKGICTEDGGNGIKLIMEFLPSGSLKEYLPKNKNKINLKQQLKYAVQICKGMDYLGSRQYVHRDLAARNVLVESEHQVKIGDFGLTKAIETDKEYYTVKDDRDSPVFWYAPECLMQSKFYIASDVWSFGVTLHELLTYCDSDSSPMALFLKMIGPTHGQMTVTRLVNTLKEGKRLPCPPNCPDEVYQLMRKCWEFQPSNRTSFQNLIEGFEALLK

One may read the IC50 as the concentration that inhibits the measured activity by half. On to `CC(C(=O)Nc1cccc2c(-c3nc(Nc4cccc(S(C)(=O)=O)c4F)ncc3F)c[nH]c12)N1CCN(C)C[C@H]1C` (stereo in doubt) [Example 49, (R)-2-((R)-2,4-dimethylpiperazin-1-yl)-N-(3-(5-fluoro-2-((2-fluoro-3-(methylsulfonyl)phenyl)amino)pyrimidin-4-yl)-1H-indol-7-yl)propanamide], for which the IC50 in experiment [1] is 93 nM; in experiment [2] it was 13 nM; in experiment [3], over 30000 nM.

For `CC[C@@H](C(=O)Nc1cccc2c(-c3nc(Nc4cccc(S(C)(=O)=O)c4F)ncc3C)c[nH]c12)N1CCN(C)CC1C` (stereo in doubt) [Example 50, (S)-2-((R)-2,4-dimethylpiperazin-1-yl)-N-(3-(2-((2-fluoro-3-(methylsulfonyl)phenyl)amino)-5-methylpyrimidin-4-yl)-1H-indol-7-yl)butanamide], the IC50 is over 30000 nM in experiment [4], 362 nM in experiment [1], 48.5 nM in experiment [2] and over 30000 nM in experiment [3].

For `CC[C@H](C(=O)Nc1cccc2c(-c3nc(Nc4cccc(S(C)(=O)=O)c4F)ncc3C)c[nH]c12)N1CCN(C)CC1C` (stereo in doubt) [Example 51, (R)-2-((R)-2,4-dimethylpiperazin-1-yl)-N-(3-(2-((2-fluoro-3-(methylsulfonyl)phenyl)amino)-5-methylpyrimidin-4-yl)-1H-indol-7-yl)butanamide], the IC50 in experiment [4] is 612 nM; in experiment [1], 24 nM; in experiment [2], under 3 nM; in experiment [3], over 30000 nM.

For `CC[C@@H](C(=O)Nc1cccc2c(-c3nc(Nc4cccc(S(C)(=O)=O)c4F)ncc3F)c[nH]c12)N1CCN(C)CC1C` (stereo in doubt) [Example 52, (S)-2-((R)-2,4-dimethylpiperazin-1-yl)-N-(3-(5-fluoro-2-((2-fluoro-3-(methylsulfonyl)phenyl)amino)pyrimidin-4-yl)-1H-indol-7-yl)butanamide], the IC50 in experiment [4] is over 30000 nM; in experiment [1], 1070 nM; in experiment [2], 348 nM; in experiment [3], over 30000 nM.

As for `CC[C@H](C(=O)Nc1cccc2c(-c3nc(Nc4cccc(S(C)(=O)=O)c4F)ncc3F)c[nH]c12)N1CCN(C)CC1C` (stereo in doubt) [Example 53, (R)-2-((R)-2,4-dimethylpiperazin-1-yl)-N-(3-(5-fluoro-2-((2-fluoro-3-(methylsulfonyl)phenyl)amino)pyrimidin-4-yl)-1H-indol-7-yl)butanamide], the IC50 in experiment [4] is 2080 nM; in experiment [1] it was 48 nM; in experiment [2] it was under 3 nM; in experiment [3], over 30000 nM.

`CC[C@H](C(=O)Nc1cccc2c(-c3nc(Nc4cccc(S(C)(=O)=O)c4F)ncc3C)c[nH]c12)N1CCN(C)CC1C` (stereo in doubt) [Example 60, (R)-2-((S)-2,4-dimethylpiperazin-1-yl)-N-(3-(2-((2-fluoro-3-(methylsulfonyl)phenyl)amino)-5-methylpyrimidin-4-yl)-1H-indol-7-yl)butanamide]: the IC50 in experiment [4] was 11900 nM; in experiment [1], 64.2 nM; in experiment [2], 7.4 nM; in experiment [3], over 30000 nM.

Turning to `CC[C@@H](C(=O)Nc1cccc2c(-c3nc(Nc4cccc(S(C)(=O)=O)c4F)ncc3C)c[nH]c12)N1CCN(C)CC1C` (stereo in doubt) [Example 61, (S)-2-((S)-2,4-dimethylpiperazin-1-yl)-N-(3-(2-((2-fluoro-3-(methylsulfonyl)phenyl)amino)-5-methylpyrimidin-4-yl)-1H-indol-7-yl)butanamide], the IC50 is over 30000 nM in experiment [4], 163 nM in experiment [1], 42.8 nM in experiment [2] and over 30000 nM in experiment [3].

Consider `Cc1cnc(Nc2cccc(S(C)(=O)=O)c2F)nc1-c1c[nH]c2c(NC(=O)[C@@H](C)N3CCN(CCO)CC3)cccc12` [Example 1, (R)-N-(3-(2-((2-fluoro-3-(methylsulfonyl)phenyl)amino)-5-methylpyrimidin-4-yl)-1H-indol-7-yl)-2-(4-(2-hydroxyethyl)piperazin-1-yl)propanamide], for which the IC50 was 1580 nM in experiment [4], 41 nM in experiment [1], under 3 nM in experiment [2] and over 30000 nM in experiment [3].

In the case of `Cc1cnc(Nc2cccc(S(C)(=O)=O)c2F)nc1-c1c[nH]c2c(NC(=O)[C@@H](C)N3CCN(C)CC3)cccc12` [Example 2, (R)-N-(3-(2-((2-fluoro-3-(methylsulfonyl)phenyl)amino)-5-methylpyrimidin-4-yl)-1H-indol-7-yl)-2-(4-methylpiperazin-1-yl)propanamide], the IC50 in experiment [4] is 7350 nM; in experiment [1], 32 nM; in experiment [2], at most 3 nM; in experiment [3] it was over 30000 nM.

For `CCS(=O)(=O)c1cccc(Nc2ncc(C)c(-c3c[nH]c4c(NC(=O)[C@@H](C)N5CCN(C)CC5)cccc34)n2)c1F` [Example 3, (R)-N-(3-(2-(3-(ethylsulfonyl)-2-fluorophenylamino)-5-methylpyrimidin-4-yl)-1H-indol-7-yl)-2-(4-methylpiperazin-1-yl)propanamide], the half-maximal inhibitory concentration (IC50) is 4120 nM in experiment [4], 39 nM in experiment [1], under 3 nM in experiment [2] and over 30000 nM in experiment [3].

Regarding `Cc1cnc(Nc2cccc(S(=O)(=O)C3CC3)c2F)nc1-c1c[nH]c2c(NC(=O)[C@@H](C)N3CCN(C)CC3)cccc12` [Example 4], the concentration for half-maximal inhibition (IC50) in experiment [4] was 1600 nM; in experiment [1], 27 nM; in experiment [2] it was under 3 nM; in experiment [3], over 30000 nM.

`Cc1cnc(Nc2cccc(S(C)(=O)=O)c2F)nc1-c1c[nH]c2c(NC(=O)[C@@H](C)N3C[C@H](C)N[C@@H](C)C3)cccc12` [Example 9, (R)-2-((3S,5S)-3,5-dimethylpiperazin-1-yl)-N-(3-(2-((2-fluoro-3-(methylsulfonyl)phenyl)amino)-5-methylpyrimidin-4-yl)-1H-indol-7-yl)propanamide] registered an IC50 in experiment [1] of 55 nM.

For the compound `COC[C@@H](C(=O)Nc1cccc2c(-c3nc(Nc4cccc(S(C)(=O)=O)c4F)ncc3C)c[nH]c12)N1CCN(C)CC1` [Example 15, (S)-N-(3-(2-((2-fluoro-3-(methylsulfonyl)phenyl)amino)-5-methylpyrimidin-4-yl)-1H-indol-7-yl)-3-methoxy-2-(4-methylpiperazin-1-yl)propanamide], the concentration for half-maximal inhibition (IC50) in experiment [1] was 465 nM; in experiment [2], 213 nM; in experiment [3] it was over 30000 nM.

Regarding `COC[C@H](C(=O)Nc1cccc2c(-c3nc(Nc4cccc(S(C)(=O)=O)c4F)ncc3C)c[nH]c12)N1CCN(C)CC1` [Example 16, (R)-N-(3-(2-((2-fluoro-3-(methylsulfonyl)phenyl)amino)-5-methylpyrimidin-4-yl)-1H-indol-7-yl)-3-methoxy-2-(4-methylpiperazin-1-yl)propanamide], the half-inhibitory concentration (IC50) in experiment [1] is 18 nM; in experiment [2] it was under 3 nM; in experiment [3], over 30000 nM.

In experiment [1], `CC[C@H](C(=O)Nc1cccc2c(-c3nc(Nc4cccc(S(C)(=O)=O)c4F)ncc3C)c[nH]c12)N1C[C@H](C)N(C)[C@@H](C)C1` [Example 20, (R)-N-(3-(2-((2-fluoro-3-(methylsulfonyl)phenyl)amino)-5-methylpyrimidin-4-yl)-1H-indol-7-yl)-2-((3S,5S)-3,4,5-trimethylpiperazin-1-yl)butanamide] registered a half-inhibitory concentration (IC50) of 51 nM.

In the case of `COC[C@@H](C(=O)Nc1cccc2c(-c3nc(Nc4cccc(S(C)(=O)=O)c4F)ncc3F)c[nH]c12)N1CCN(C)CC1` [Example 34, (S)-N-(3-(5-fluoro-2-((2-fluoro-3-(methylsulfonyl)phenyl)amino)pyrimidin-4-yl)-1H-indol-7-yl)-3-methoxy-2-(4-methylpiperazin-1-yl)propanamide], the IC50 was over 4200 nM in experiment [1], 1840 nM in experiment [2] and over 30000 nM in experiment [3].

As to `CCOC[C@H](C(=O)Nc1cccc2c(-c3nc(Nc4cccc(S(C)(=O)=O)c4F)ncc3F)c[nH]c12)N1CCN(C)CC1` [Example 63, (R)-3-ethoxy-N-(3-(5-fluoro-2-((2-fluoro-3-(methylsulfonyl)phenyl)amino)pyrimidin-4-yl)-1H-indol-7-yl)-2-(4-methylpiperazin-1-yl)propanamide], in experiment [1], it took 99 nM to reach half-maximal inhibition (IC50).

The compound `COC[C@H](C(=O)Nc1cccc2c(-c3nc(Nc4cccc(S(C)(=O)=O)c4F)ncc3F)c[nH]c12)N1CCNCC1` [Example 66, (R)-N-(3-(5-fluoro-2-(2-fluoro-3-(methylsulfonyl)phenylamino)pyrimidin-4-yl)-1H-indol-7-yl)-3-methoxy-2-(piperazin-1-yl)propanamide] yielded an IC50 in experiment [1] of 51 nM.

Turning to `COC[C@@H](C(=O)Nc1cccc2c(-c3nc(Nc4cccc(S(C)(=O)=O)c4F)ncc3F)c[nH]c12)N1CCNCC1` [Example 67, (S)-N-(3-(5-fluoro-2-(2-fluoro-3-(methylsulfonyl)phenylamino)pyrimidin-4-yl)-1H-indol-7-yl)-3-methoxy-2-(piperazin-1-yl)propanamide], inhibition in experiment [1] was half-maximal at 1390 nM (IC50).

The values are drawn from patent US10961228B2, “JAK1 selective inhibitors” (AstraZeneca AB, priority 2017, dated 2021).
